How the values were obtained:
[1] = Vasodilator activity in Sprague-Dawley rat mesentric artery assessed as reduction in of K+-induced contraction; format: functional, Mesenteric artery
[2] = Vasodilator activity in Sprague-Dawley rat mesentric artery assessed as reduction in of K+-induced contraction relative to control; format: functional; settings: Mesenteric artery

Row | SMILES | pEC50 [1] | Emax [2] [%]
1 | COC(=O)c1ccccc1-c1c2ccoc2c(OCCN2CCCCC2)c2oc(=O)ccc12 | 5.35 | 116
2 | COC(=O)c1ccccc1-c1c2ccoc2c(OCCN2CCCC2)c2oc(=O)ccc12 | 4.71 | 102
3 | CCOC(=O)c1ccccc1-c1c2ccoc2c(OCCN2CCOCC2)c2oc(=O)ccc12 | 5.81 | 113
4 | CC(C)=CCOc1c2occc2cc2ccc(=O)oc12 [PENTOSALEN] | 4.95 | 85.6
5 | CCOC(=O)c1ccccc1-c1c2ccoc2c(OCCN2CCCC2)c2oc(=O)ccc12 | 5.15 | 100
6 | CCOC(=O)c1ccccc1-c1c2ccoc2c(OCCN2CCCCC2)c2oc(=O)ccc12 | 5.38 | 113
7 | COc1ccc(CCN(C)CCCC(C#N)(c2ccc(OC)c(OC)c2)C(C)C)cc1OC (stereo not drawn) [VERAPAMIL] | 7.51 | 95.8
8 | COC(=O)c1ccccc1-c1c2ccoc2c(OCCN(C)C)c2oc(=O)ccc12 | 5.27 | 102
9 | COC(=O)c1ccccc1-c1c2ccoc2c(OCCN2CCOCC2)c2oc(=O)ccc12 | 5.59 | 100
